Results taken from US20240025883A1, “PYRIMIDIN-2-YL SULFONAMIDE DERIVATIVES” (Hoffmann-La Roche Inc., priority 2021, published 2024).
pIC50: −log10 of the molar value.

target: human GPR17 short isoform (Homo sapiens (Human), UniProt Q13304); assay: GPR17 cAMP assay (hGPR17 cAMP, antagonist mode against EC80 of MDL29,951); type: cell-based; conditions: CHO-K1 cells stably expressing human GPR17 short isoform; EC80 of agonist MDL29,951; forskolin 15 μM
Method: GPR17 cAMP Assay Protocol:
CHO-K1 cells stably expressing vector containing untagged human GPR17 short isoform (Roche) were cultured at 37° C./5% CO2 in DMEM (Dulbecco's Modified Eagle Medium):F-12 (1:1) supplemented with 10% foetal bovine serum and 400 μg/ml Geneticin.
Changes in intracellular cyclic adenosine monophosphate (cAMP) levels were quantified using the Nano-TRF Detection Assay kit (Roche Diagnostics, Cat. No. 05214386001). This assay allows for direct cAMP quantification in a homogeneous solution, cAMP is detected based on time-resolved fluorescence energy transfer (TR-FRET) and competitive binding of ruthenylated cAMP and endogenous cAMP to an anti-cAMP monoclonal antibody labeled with AlexaFluor-700. The Ruthenium complex serves as the FRET donor and transfers energy to AlexaFluor-700. The FRET signal is inversely proportional to the cAMP concentration.
CHO-GPR17S cells were detached with Accutase and resuspended in assay buffer consisting of Hank's Balanced Salt Solution (HBSS), 10 mM HEPES (4-(2-hydroxyethyl) piperazine-1-ethanesulfonic acid solution) and 0.1% bovine serum albumin (pH 7.4). The cells were seeded in black 384-well plates (Corning) at a density of 10,000 cells/20 μl assay buffer until the addition of compounds.
Test antagonist compounds were serially diluted in dimethyl sulfoxide (DMSO) and spotted in 384-well plates. The compounds were then diluted in HBSS buffer supplemented with an EC80 concentration of MDL29,951 (3-(2-Carboxy-4,6-dichloroindol-3-yl)propionic acid) (GPR17 agonist) plus 3-Isobutyl-1-methylxanthine (IBMX) (0.5 mM final concentration) and added to the cells at room temperature. Forskolin (15 μM final concentration) was added 5 minutes after the test compounds and the cells were incubated at room temperature for 30 minutes. The assay was stopped by adding cAMP detection mix (containing detergents for cell lysis) for 90 minutes at room temperature.
Cellular cAMP was measured using a Paradigm reader (Molecular Devices). The raw data was used to calculate the FRET signal based on the assay's P-factor as per cAMP kit instructions. The data was normalized to the maximal activity of a reference antagonist and dose response curves were fitted to the percent activity of the test compounds using a sigmoidal dose response model (Genedata Screener).

human GPR17 short isoform, sequence (Q13304 29-367): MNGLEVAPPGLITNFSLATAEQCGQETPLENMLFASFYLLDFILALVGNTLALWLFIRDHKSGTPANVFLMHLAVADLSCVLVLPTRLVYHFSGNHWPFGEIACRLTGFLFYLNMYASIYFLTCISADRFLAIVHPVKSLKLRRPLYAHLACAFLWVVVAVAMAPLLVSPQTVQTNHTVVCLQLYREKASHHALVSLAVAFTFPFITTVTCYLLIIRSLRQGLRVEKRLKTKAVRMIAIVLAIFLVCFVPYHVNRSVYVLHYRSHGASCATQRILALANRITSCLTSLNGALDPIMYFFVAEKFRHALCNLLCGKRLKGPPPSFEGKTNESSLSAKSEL

Going from `COc1nc(NS(=O)(=O)c2c[nH]c3cc(Cl)ccc23)nc(C)c1CC(F)F` [Example 78, 6-chloro-N-[5-(2,2-difluoroethyl)-4-methoxy-6-methyl-pyrimidin-2-yl]-1H-indole-3-sulfonamide] to `COc1nc(NS(=O)(=O)c2c[nH]c3cc(Cl)ccc23)nc(C2CC2)c1CC(F)F` [Example 79, 6-chloro-N-[4-cyclopropyl-5-(2,2-difluoroethyl)-6-methoxy-pyrimidin-2-yl]-1H-indole-3-sulfonamide], the pIC50 rises from 6.61 to 6.89 (0.28 log units).

Going from `COc1nc(NS(=O)(=O)c2c[nH]c3cc(Cl)ccc23)nc(CC2CC2)c1Br` [Example 80, N-[5-bromo-4-(cyclopropylmethyl)-6-methoxy-pyrimidin-2-yl]-6-chloro-1H-indole-3-sulfonamide] to `COCc1nc(NS(=O)(=O)c2c[nH]c3cc(Cl)ccc23)nc(OC)c1Br` [Example 81, N-[5-bromo-4-methoxy-6-(methoxymethyl)pyrimidin-2-yl]-6-chloro-1H-indole-3-sulfonamide], the pIC50 rises from 4.68 to 5.24 (0.56 log units).

`COc1nc(NS(=O)(=O)c2c[nH]c3cc(Cl)ccc23)nc(C(C)(F)F)c1Br` [Example 82, N-[5-bromo-4-(1,1-difluoroethyl)-6-methoxy-pyrimidin-2-yl]-6-chloro-1H-indole-3-sulfonamide] and `COc1nc(NS(=O)(=O)c2c[nH]c3cc(Cl)ccc23)nc(C(F)F)c1Br` [Example 84, N-[5-bromo-4-(difluoromethyl)-6-methoxy-pyrimidin-2-yl]-6-chloro-1H-indole-3-sulfonamide] are within 0.2 log units of each other in pIC50: 6.12 for the first, 6.28 for the second.

Going from `COc1nc(NS(=O)(=O)c2c[nH]c3cc(Cl)ccc23)nc(OCF)c1Br` [Example 83, N-[5-bromo-4-(fluoromethoxy)-6-methoxy-pyrimidin-2-yl]-6-chloro-1H-indole-3-sulfonamide] to `COc1nc(NS(=O)(=O)c2c[nH]c3cc(Cl)ccc23)nc(CC#N)c1Br` [Example 85, N-[5-bromo-4-(cyanomethyl)-6-methoxy-pyrimidin-2-yl]-6-chloro-1H-indole-3-sulfonamide], the pIC50 falls from 7.11 to 6.21 (0.90 log units).

Compared with `COc1nc(NS(=O)(=O)c2c[nH]c3cc(Cl)ccc23)nc(SC)c1OC(F)F` [Example 86, 6-chloro-N-[5-(difluoromethoxy)-4-methoxy-6-methylsulfanyl-pyrimidin-2-yl]-1H-indole-3-sulfonamide], `COc1nc(NS(=O)(=O)c2c[nH]c3cc(Br)ccc23)nc(OC)c1OC(F)F` [Example 90, 6-bromo-N-[5-(difluoromethoxy)-4,6-dimethoxy-pyrimidin-2-yl]-1H-indole-3-sulfonamide] is 0.61 log units higher in pIC50: 6.93 for the first, 7.54 for the second.

Going from `COc1nc(NS(=O)(=O)c2c[nH]c3cc(Br)ccc23)ncc1CC(F)F` [Example 88, 6-bromo-N-[5-(2,2-difluoroethyl)-4-methoxy-pyrimidin-2-yl]-1H-indole-3-sulfonamide] to `COc1nc(NS(=O)(=O)c2c[nH]c3cc(OC(F)F)ccc23)ncc1CC(F)F` [Example 104, N-[5-(2,2-difluoroethyl)-4-methoxy-pyrimidin-2-yl]-6-(difluoromethoxy)-1H-indole-3-sulfonamide], the pIC50 falls from 7.48 to 6.68 (0.80 log units). The first is the more potent here.

Compared with `COc1nc(NS(=O)(=O)c2c[nH]c3cc(Br)ccc23)ncc1CCC#N` [Example 89, 6-bromo-N-[5-(2-cyanoethyl)-4-methoxy-pyrimidin-2-yl]-1H-indole-3-sulfonamide], `COc1nc(NS(=O)(=O)c2c[nH]c3cc(Br)ccc23)nc(OC)c1CCC#N` [Example 93, 6-bromo-N-[5-(2-cyanoethyl)-4,6-dimethoxy-pyrimidin-2-yl]-1H-indole-3-sulfonamide] is 1.33 log units higher in pIC50: 6.67 for the first, 8.00 for the second. The second is the more potent here.

First: COc1nc(NS(=O)(=O)c2c[nH]c3cc(Br)ccc23)nc(OC)c1OCCF [Example 91, 6-bromo-N-[5-(2-fluoroethoxy)-4,6-dimethoxy-pyrimidin-2-yl]-1H-indole-3-sulfonamide]
Second: COc1nc(NS(=O)(=O)c2c[nH]c3cc(Br)ccc23)nc(OC)c1OCC(F)F [Example 92, 6-bromo-N-[5-(2,2-difluoroethoxy)-4,6-dimethoxy-pyrimidin-2-yl]-1H-indole-3-sulfonamide]
The pIC50 of the first is 0.22 log units lower: 7.52 for the first, 7.74 for the second.

First: COc1nc(NS(=O)(=O)c2c[nH]c3nc(C(F)F)ccc23)nc(OC)c1OC(F)F [Example 94, N-[5-(difluoromethoxy)-4,6-dimethoxy-pyrimidin-2-yl]-6-(difluoromethyl)-1H-pyrrolo[2,3-b]pyridine-3-sulfonamide]
Second: COc1nc(NS(=O)(=O)c2c[nH]c3nc(C(F)F)ccc23)nc(OC)c1CCC(F)F [Example 98, 6-(difluoromethyl)-N-[5-(3,3-difluoropropyl)-4,6-dimethoxy-pyrimidin-2-yl]-1H-pyrrolo[2,3-b]pyridine-3-sulfonamide]
The pIC50 of the first is 0.48 log units lower: 7.12 for the first, 7.60 for the second. The second is the more potent here.

Going from `COc1nc(NS(=O)(=O)c2c[nH]c3nc(C(F)F)ccc23)nc(OC)c1OCC#N` [Example 99, N-[5-(cyanomethoxy)-4,6-dimethoxy-pyrimidin-2-yl]-6-(difluoromethyl)-1H-pyrrolo[2,3-b]pyridine-3-sulfonamide] to `COc1nc(NS(=O)(=O)c2c[nH]c3nc(Br)ccc23)nc(OC)c1OCCF` [Example 109, 6-bromo-N-[5-(2-fluoroethoxy)-4,6-dimethoxy-pyrimidin-2-yl]-1H-pyrrolo[2,3-b]pyridine-3-sulfonamide], the pIC50 rises from 6.99 to 7.44 (0.45 log units). The second is the more potent here.

Compared with `COc1nc(NS(=O)(=O)c2c[nH]c3cc(C(F)F)ccc23)ncc1OC(F)(F)CF` [Example 100, 6-(difluoromethyl)-N-[4-methoxy-5-(1,1,2-trifluoroethoxy)pyrimidin-2-yl]-1H-indole-3-sulfonamide], `COc1nc(NS(=O)(=O)c2c[nH]c3cc(C(F)F)ccc23)nc(OC)c1CCC#N` [Example 103, N-[5-(2-cyanoethyl)-4,6-dimethoxy-pyrimidin-2-yl]-6-(difluoromethyl)-1H-indole-3-sulfonamide] is 1.16 log units higher in pIC50: 6.80 for the first, 7.96 for the second. The second is the more potent here.

`COc1nc(NS(=O)(=O)c2c[nH]c3c(SC(F)F)c(Cl)ccc23)ncc1CCC#N` [Example 105, 6-chloro-N-[5-(2-cyanoethyl)-4-methoxy-pyrimidin-2-yl]-7-(difluoromethylthio)-1H-indole-3-sulfonamide] and `COc1nc(NS(=O)(=O)c2c[nH]c3c(SC(F)F)c(Cl)ccc23)nc(OC)c1CCC#N` [Example 107, 6-chloro-N-[5-(2-cyanoethyl)-4,6-dimethoxy-pyrimidin-2-yl]-7-(difluoromethylthio)-1H-indole-3-sulfonamide] are within 0.2 log units of each other in pIC50: 7.85 for the first, 7.92 for the second.

First: COc1nc(NS(=O)(=O)c2c[nH]c3c(SC(F)F)c(Cl)ccc23)nc(OC)c1OCCF [Example 106, 6-chloro-7-(difluoromethylthio)-N-[5-(2-fluoroethoxy)-4,6-dimethoxy-pyrimidin-2-yl]-1H-indole-3-sulfonamide]
Second: COc1nc(NS(=O)(=O)c2c[nH]c3nc(Br)ccc23)nc(OC)c1OC(F)(F)CF [Example 110, 6-bromo-N-[4,6-dimethoxy-5-(1,1,2-trifluoroethoxy)pyrimidin-2-yl]-1H-pyrrolo[2,3-b]pyridine-3-sulfonamide]
The pIC50 of the first is 0.55 log units higher: 8.15 for the first, 7.60 for the second. The first is the more potent here.

Work on `COc1nc(NS(=O)(=O)c2c[nH]c3c(Cl)cccc23)ncc1CC(F)F` [Example 108, 7-chloro-N-[5-(2,2-difluoroethyl)-4-methoxy-pyrimidin-2-yl]-1H-indole-3-sulfonamide] yielded a pIC50 of 6.19.
